# Values of other authors, collected in US20190015503A1, “METHODS FOR THE PROGNOSIS AND TREATMENT OF ENDOMETRIAL CARCINOMA” (INSERM (INSTITUT NATIONAL DE LA SANTÉ DE LA RECHERCHE …, priority 2015, published 2019).
# System: prostate cancer cells
# Conditions: dose- and time-dependent
smiles,measurement,value
COc1cccc(OC)c1-c1cc(C(=O)NC2(C(=O)O)C3CC4CC(C3)CC2C4)nn1-c1ccnc2cc(Cl)ccc12 (stereo not shown) [SR48692],radio-sensitization (increasing apoptotic cell death and decreasing clonogenic survival),radio-sensitized prostate cancer cells in a dose- and time-dependent manner
